Reference: patent US11339419B2, “Scavenger protein(s) for improved preservation of analyte detection sensor(s) and method(s) of use thereof” (Siemens Healthcare Diagnostics Inc., priority 2017, dated 2022)
Values joined by “and” are separate entries in the source; they are usually repeats but may differ in a detail not shown here. Identical values can stand only once.

Test system: creatininase (Toyobo)
Experiment: Toyobo Creatininase Enzyme Absorbance with BSA and MIT
Format: biochemical
[1] = Day 0, 5 mg/mL BSA, no MIT (row of 100 ppm MIT)
[2] = Day 0, 25 mg/mL BSA, no MIT (row of 50 ppm MIT)
[3] = Day 0, 25 mg/mL BSA, no MIT (row of 100 ppm MIT)
[4] = Day 0, 50 mg/mL BSA, no MIT (row of 50 ppm MIT)
[5] = Day 0, 50 mg/mL BSA, no MIT (row of 100 ppm MIT)
[6] = Day 0, 50 ppm MIT, 25 mg/mL BSA
[7] = Day 0, 50 ppm MIT, 50 mg/mL BSA
[8] = Day 0, 100 ppm MIT, 5 mg/mL BSA
[9] = Day 0, 100 ppm MIT, 25 mg/mL BSA
[10] = Day 0, 100 ppm MIT, 50 mg/mL BSA
[11] = Day 4, 50 ppm MIT, 25 mg/mL BSA
[12] = Day 4, 50 ppm MIT, 50 mg/mL BSA
[13] = Day 4, 100 ppm MIT, 5 mg/mL BSA
[14] = Day 4, 100 ppm MIT, 25 mg/mL BSA
[15] = Day 4, 100 ppm MIT, 50 mg/mL BSA
[16] = Day 14, 50 ppm MIT, 5 mg/mL BSA
[17] = Day 14, 50 ppm MIT, 25 mg/mL BSA
[18] = Day 14, 50 ppm MIT, 50 mg/mL BSA
[19] = Day 14, 100 ppm MIT, 5 mg/mL BSA
[20] = Day 14, 100 ppm MIT, 25 mg/mL BSA
[21] = Day 14, 100 ppm MIT, 50 mg/mL BSA

## bovine serum albumin [BSA]
Day 0, 5 mg/mL BSA, no MIT (row of 50 ppm MIT)
  MEAN (columns 7-11): 0.59
[1]
  Creatininase Enzyme Absorbance, columns 7-11: 0.806 and 0.802 and 0.845
  MEAN (columns 7-11): 0.61
[2]
  Creatininase Enzyme Absorbance, columns 7-11: 0.767
  MEAN (columns 7-11): 0.58
[3]
  Creatininase Enzyme Absorbance, columns 7-11: 0.751 and 0.768 and 0.799 and 0.806
  MEAN (columns 7-11): 0.57
[4]
  Creatininase Enzyme Absorbance, columns 7-11: 0.845
  MEAN (columns 7-11): 0.64
[5]
  Creatininase Enzyme Absorbance, columns 7-11: 0.735 and 0.782 and 0.778
  MEAN (columns 7-11): 0.55
Day 0, 50 ppm MIT vs no MIT, 5 mg/mL BSA
  % Bias: 6.6%
Day 0, 50 ppm MIT vs no MIT, 25 mg/mL BSA
  % Bias: 8.6%
Day 0, 50 ppm MIT vs no MIT, 50 mg/mL BSA
  % Bias: 4.9%
Day 0, 50 ppm MIT, 5 mg/mL BSA
  Creatininase Enzyme Absorbance: 0.893 and 0.808 and 0.806 and 0.812 and 0.843
  MEAN: 0.63
[6]
  Creatininase Enzyme Absorbance: 0.895 and 0.829 and 0.788 and 0.82 and 0.831
  MEAN: 0.63
[7]
  Creatininase Enzyme Absorbance: 0.905 and 0.862 and 0.847 and 0.863 and 0.895
  MEAN: 0.67
Day 0, 100 ppm MIT vs no MIT, 5 mg/mL BSA
  % Bias: 7.6%
Day 0, 100 ppm MIT vs no MIT, 25 mg/mL BSA
  % Bias: 10.4%
Day 0, 100 ppm MIT vs no MIT, 50 mg/mL BSA
  % Bias: 10.1%
[8]
  Creatininase Enzyme Absorbance: 0.922 and 0.849 and 0.843 and 0.844 and 0.859
  MEAN: 0.66
[9]
  Creatininase Enzyme Absorbance: 0.905 and 0.838 and 0.807 and 0.795 and 0.811
  MEAN: 0.63
[10]
  Creatininase Enzyme Absorbance: 0.867 and 0.794 and 0.799 and 0.792 and 0.771
  MEAN: 0.60
Day 4, 5 mg/mL BSA, no MIT (row of 50 ppm MIT)
  MEAN (columns 7-11): 0.81
Day 4, 5 mg/mL BSA, no MIT (row of 100 ppm MIT)
  MEAN (columns 7-11): 0.77
Day 4, 25 mg/mL BSA, no MIT (row of 50 ppm MIT)
  MEAN (columns 7-11): 0.64
Day 4, 25 mg/mL BSA, no MIT (row of 100 ppm MIT)
  MEAN (columns 7-11): 0.62
Day 4, 50 mg/mL BSA, no MIT (row of 50 ppm MIT)
  MEAN (columns 7-11): 0.52
Day 4, 50 mg/mL BSA, no MIT (row of 100 ppm MIT)
  MEAN (columns 7-11): 0.51
Day 4, 50 ppm MIT vs no MIT, 5 mg/mL BSA
  % Bias: −0.2%
Day 4, 50 ppm MIT vs no MIT, 25 mg/mL BSA
  % Bias: 1.5%
Day 4, 50 ppm MIT vs no MIT, 50 mg/mL BSA
  % Bias: 1.9%
Day 4, 50 ppm MIT, 5 mg/mL BSA
  Creatininase Enzyme Absorbance: 1.031 and 0.998 and 1.012 and 1.044 and 1.01
  MEAN: 0.81
[11]
  Creatininase Enzyme Absorbance: 0.867 and 0.847 and 0.853 and 0.878 and 0.873
  MEAN: 0.65
[12]
  Creatininase Enzyme Absorbance: 0.737 and 0.728 and 0.749 and 0.75 and 0.765
  MEAN: 0.53
Day 4, 100 ppm MIT vs no MIT, 5 mg/mL BSA
  % Bias: 2.2%
Day 4, 100 ppm MIT vs no MIT, 25 mg/mL BSA
  % Bias: 5.6%
Day 4, 100 ppm MIT vs no MIT, 50 mg/mL BSA
  % Bias: 7.0%
[13]
  Creatininase Enzyme Absorbance: 0.998 and 0.974 and 1.006 and 1.008 and 1.031
  MEAN: 0.79
[14]
  Creatininase Enzyme Absorbance: 0.871 and 0.863 and 0.869 and 0.86 and 0.866
  MEAN: 0.65
[15]
  Creatininase Enzyme Absorbance: 0.773 and 0.775 and 0.754 and 0.734 and 0.742
  MEAN: 0.54
Day 14, 5 mg/mL BSA, no MIT (row of 50 ppm MIT)
  MEAN (columns 7-11): 0.90
Day 14, 5 mg/mL BSA, no MIT (row of 100 ppm MIT)
  MEAN (columns 7-11): 0.87
Day 14, 25 mg/mL BSA, no MIT (row of 50 ppm MIT)
  MEAN (columns 7-11): 0.70
Day 14, 25 mg/mL BSA, no MIT (row of 100 ppm MIT)
  MEAN (columns 7-11): 0.72
Day 14, 50 mg/mL BSA, no MIT (row of 50 ppm MIT)
  MEAN (columns 7-11): 0.55
Day 14, 50 mg/mL BSA, no MIT (row of 100 ppm MIT)
  MEAN (columns 7-11): 0.56
Day 14, 50 ppm MIT vs no MIT, 5 mg/mL BSA
  % Bias: −1.7%
Day 14, 50 ppm MIT vs no MIT, 25 mg/mL BSA
  % Bias: 10.4%
Day 14, 50 ppm MIT vs no MIT, 50 mg/mL BSA
  % Bias: 3.9%
[16]
  Creatininase Enzyme Absorbance: 1.13 and 1.104 and 1.098 and 1.12 and 1.117
  MEAN: 0.88
[17]
  Creatininase Enzyme Absorbance: 1.021 and 0.986 and 0.982 and 1.025 and 0.996
  MEAN: 0.77
[18]
  Creatininase Enzyme Absorbance: 0.814 and 0.793 and 0.789 and 0.796 and 0.804
  MEAN: 0.57
Day 14, 100 ppm MIT vs no MIT, 5 mg/mL BSA
  % Bias: 4.1%
Day 14, 100 ppm MIT vs no MIT, 25 mg/mL BSA
  % Bias: 3.3%
Day 14, 100 ppm MIT vs no MIT, 50 mg/mL BSA
  % Bias: 6.0%
[19]
  Creatininase Enzyme Absorbance: 1.155 and 1.123 and 1.105 and 1.133 and 1.156
  MEAN: 0.91
[20]
  Creatininase Enzyme Absorbance: 0.997 and 0.966 and 0.95 and 0.992 and 0.976
  MEAN: 0.75
[21]
  Creatininase Enzyme Absorbance: 0.854 and 0.822 and 0.792 and 0.828 and 0.832
  MEAN: 0.60
Days 4 and 14, 5, 25 and 50 mg/mL BSA, with MIT
  absorbance of the creatininase enzyme compared to samples containing 0 mg/mL of BSA: increased absorbance
Days 4 and 14, only BSA, no MIT
  creatininase absorbance, solutions 7-11: increased (or at least maintained)
Days 4 and 14, with MIT
  BSA concentration at which the creatininase absorbance measurement is highest: 5 mg/mL
